Experiments:
Type in all cases: cell-based
[1] = test system: NCI-H226 mesothelioma cell line; test: Mesothelioma cell line proliferation assay, NCI-H226 (ATPlite); details: NCI-H226 cells, 6 days with compound, cell viability by ATPlite
Experimental: (§1) Example 57: Activity of Compounds of the Disclosure in Mesothelioma Cell Line Proliferation Assays
(§2) Mesothelioma cell lines, NCI-H226 and NCI-H2052 (both sourced from the ATCC cell culture collection) were plated in 96-well plates (Corning® 96 Well White Polystyrene Microplate clear flat bottom, white polystyrene (TC-Treated)), at 1500 cells/well in full medium (RPMI 1640 ATCC modification with L-glutamine, HEPES, Phenol Red, Sodium Pyruvate, High glucose, Low sodium bicarbonate and 10% fetal bovine serum). Cells were incubated overnight at 37° C. in an incubator with 5% CO2. Then compounds, dissolved in DMSO, were added in dose-response. Cells were incubated with compound dilutions for another 6 days at 37° C. in an incubator with 5% CO2. Cell viability was quantitated using the ATPlite kit (Perkin-Elmer) and the luminescence was read-out using an Envision instrument (Perkin-Elmer). The amount of relative light units produced using the ATPlite kit was used to calculate percent of inhibition.
(§3) The activities of some example compounds are depicted in Table 4. The activity ranges A, B and C refer to EC50 values in the mesothelioma cell line proliferation assay as described as follows: “A”: EC50<1 μM; “B”: 1 μM≤EC50≤10 μM and “C”: EC50>10 μM; NT: not tested.

[2] = test system: YAP/TAZ-TEAD transcription; test: Reporter gene assay for measuring the inhibition of YAP/TAZ-TEAD transcription (TEAD-responsive element luciferase reporter in Hek293T cells); details: 24 hours incubation
In short: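 HEK293T cells transiently transfected with a TEAD-responsive luciferase reporter were exposed to compounds for 24 h at 37° C/5% CO2, then luminescence was read. Percent inhibition normalised to vehicle (0%) and positive-control inhibitor (100%); IC50 derived.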

[3] = test system: NCI-H2052 mesothelioma cell line; test: Mesothelioma cell line proliferation assay, NCI-H2052 (ATPlite); details: NCI-H2052 cells, 6 days with compound, cell viability by ATPlite
Experimental: as §1, §2, §3

O=C(NO)C1CCN2c3ccccc3N(c3ccc(C(F)(F)F)cc3)CC2C1 [116B-En2, (6aS,8S)- or (6aR,8S)- or (6aR,8R)- or (6aS,8R)-N-hydroxy-5-(4-(trifluoromethyl)phenyl)-6,6a,7,8,9,10-hexahydro-5H-pyrido[1,2-a]quinoxaline-8-carboxamide]
< 1 µM: EC50 ([1]; Homo sapiens, 144 h) | IC50 [2] | EC50 ([3]; Homo sapiens, 144 h)

CC(=O)N1CCN2c3nccnc3N(c3ccc(C(F)(F)F)cc3)CC2C1 (single isomer, unassigned) [40-En1, (R)- or (S)-1-(5-(4-(trifluoromethyl)phenyl)-5,6,6a,7,9,10-hexahydro-8H-dipyrazino[1,2-a:2′,3′-e]pyrazin-8-yl)ethan-1-one]
< 1 µM: EC50 ([1]; Homo sapiens, 144 h) | IC50 [2] | EC50 ([3]; Homo sapiens, 144 h)

FC(F)(F)c1ccc(N2CCN(Cc3cnc[nH]3)c3ccccc32)cc1 [compound 51, 1-((1H-imidazol-5-yl)methyl)-4-(4-(trifluoromethyl)phenyl)-1,2,3,4-tetrahydroquinoxaline]
< 1 µM: EC50 ([1]; Homo sapiens, 144 h) | IC50 ([2]; Homo sapiens, HEK-293T, 24 h) | EC50 ([3]; Homo sapiens, 144 h)

C=CC(=O)N1CCN2c3ccccc3N(c3ccc(C(F)(F)F)cc3)CC2C1 (single isomer, unassigned) [14-En2, (R)- or (S)-1-(6-(4-(trifluoromethyl)phenyl)-1,2,4,4a,5,6-hexahydro-3H-pyrazino[1,2-a]quinoxalin-3-yl)prop-2-en-1-one]
< 1 µM: EC50 [1] | IC50 [2] | EC50 [3]

C=CC(=O)NCC1CN(c2ccc(C(F)(F)F)cc2)c2ccccc2N1 (stereo not drawn) [compound 22, N-((4-(4-(trifluoromethyl)phenyl)-1,2,3,4-tetrahydroquinoxalin-2-yl)methyl)acrylamide]
< 1 µM: EC50 ([1]; Homo sapiens, 144 h) | IC50 ([2]; Homo sapiens, HEK-293T, 24 h) | EC50 ([3]; Homo sapiens, 144 h)

C=CC(=O)NCC1CN(c2ccc(C(F)(F)F)cc2)c2cccnc2N1C (single isomer, unassigned) [27-En1]
< 1 µM: EC50 ([1]; Homo sapiens, 144 h) | IC50 ([2]; Homo sapiens, HEK-293T, 24 h) | EC50 ([3]; Homo sapiens, 144 h)

C=CC(=O)N1CCN2c3ccccc3N(c3ccc(C(F)(F)F)cc3)CC2C1 (single isomer, unassigned) [14-En1, (R)- or (S)-1-(6-(4-(trifluoromethyl)phenyl)-1,2,4,4a,5,6-hexahydro-3H-pyrazino[1,2-a]quinoxalin-3-yl)prop-2-en-1-one]
< 1 µM: EC50 ([1]; Homo sapiens, 144 h) | IC50 [2] | EC50 ([3]; Homo sapiens, 144 h)

O=C(O)C1(F)CCN2c3ccccc3N(c3ccc(C(F)(F)F)cc3)CC2C1 [123-D1, (6aS,8S)- or (6aR,8S)- or (6aR,8R)- or (6aS,8R)-8-fluoro-5-(4-(trifluoromethyl)phenyl)-6,6a,7,8,9,10-hexahydro-5H-pyrido[1,2-a]quinoxaline-8-carboxylic acid]
< 1 µM: EC50 ([1]; Homo sapiens, 144 h) | IC50 ([2]; Homo sapiens, HEK-293T, 24 h) | EC50 ([3]; Homo sapiens, 144 h)

CNC(=O)N1CCN2c3ncccc3N(c3ccc(C(F)(F)F)cc3)CC2C1 (single isomer, unassigned) [52-En2, (R)- or (S)-N-methyl-5-(4-(trifluoromethyl)phenyl)-5,6,6a,7,9,10-hexahydro-8H-pyrazino[1,2-a]pyrido[3,2-e]pyrazine-8-carboxamide]
< 1 µM: EC50 ([1]; Homo sapiens, 144 h) | IC50 [2] | EC50 ([3]; Homo sapiens, 144 h)

CC(=O)NCC1CN(c2ccc(C(F)(F)F)cc2)c2ccc(C3CC3)nc2O1 (single isomer, unassigned) [81-En1, (R)- or (S)-N-((6-cyclopropyl-1-(4-(trifluoromethyl)phenyl)-2,3-dihydro-1H-pyrido[2,3-b][1,4]oxazin-3-yl)methyl)acetamide]
< 1 µM: EC50 ([1]; Homo sapiens, 144 h) | IC50 ([2]; Homo sapiens, HEK-293T, 24 h) | EC50 ([3]; Homo sapiens, 144 h)

C=CC(=O)NCC1CN(c2ccc(C(F)(F)F)cc2)c2cccnc2N1C (single isomer, unassigned) [27-En2]
< 1 µM: EC50 [1] | IC50 [2] | EC50 [3]

CC(=O)NCC1CN(c2ccc(C(F)(F)F)cc2)c2ccccc2O1 (stereo not drawn) [compound 36, N-((4-(4-(trifluoromethyl)phenyl)-3,4-dihydro-2H-benzo[b][1,4]oxazin-2-yl)methyl)acetamide]
< 1 µM: EC50 ([1]; Homo sapiens, 144 h) | IC50 ([2]; Homo sapiens, HEK-293T, 24 h) | EC50 ([3]; Homo sapiens, 144 h)

CC(=O)NCC1CN(c2ccc(C(F)(F)F)cc2)c2ccc(N(C)C)nc2O1 (single isomer, unassigned) [87-En1, (R)- or (S)-N-((6-(dimethylamino)-1-(4-(trifluoromethyl)phenyl)-2,3-dihydro-1H-pyrido[2,3-b][1,4]oxazin-3-yl)methyl)acetamide]
< 1 µM: EC50 ([1]; Homo sapiens, 144 h) | IC50 [2] | EC50 ([3]; Homo sapiens, 144 h)
